Experimental findings from patent US6835745B2, “Phenyl substituted thiophenes as estrogenic agents” (Wyeth, priority 2002, dated 2004) are described below.

Data set [1] has as its target T1, human ERβ (Homo sapiens, UniProt Q92731).
T1 construct: M214-Q530 of human ERβ; Flag (C); made in house; host or cells: E. coli BL21(DE3), clarified lysate
Put plainly: Radioligand binding competition with [3H]-17β-estradiol, ERβ. Particulars: human ERβ ligand binding domain extract, read-out: ER-β IC50.

The target of data set [2] is T2, human ERα (Homo sapiens, UniProt P03372).
T2 construct: amino acids M250-V595 of human ERα; His (N); Flag (C); made in house; host or cells: E. coli BL21(DE3), clarified lysate
T2 sequence (P03372 250-595): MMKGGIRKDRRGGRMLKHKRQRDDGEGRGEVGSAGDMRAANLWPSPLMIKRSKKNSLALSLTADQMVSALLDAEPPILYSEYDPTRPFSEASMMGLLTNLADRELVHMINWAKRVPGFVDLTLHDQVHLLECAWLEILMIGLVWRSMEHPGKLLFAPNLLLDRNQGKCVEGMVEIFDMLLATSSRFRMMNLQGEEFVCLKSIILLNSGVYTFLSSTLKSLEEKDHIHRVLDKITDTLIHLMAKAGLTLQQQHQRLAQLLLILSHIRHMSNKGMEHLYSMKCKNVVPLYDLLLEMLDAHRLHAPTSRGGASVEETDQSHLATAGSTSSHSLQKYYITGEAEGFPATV
Put plainly: Radioligand binding competition with [3H]-17β-estradiol, ERα. As to conditions: human ERα ligand binding domain extract, read-out: ER-α IC50.

Data set [3] relates to metallothionein-II mRNA in Saos-2 cells. Put plainly: Regulation of metallothionein II mRNA in Saos-2 cells. Format: cell-based. The text has this: Estrogens acting through ERβ, but not ERα can upregulate metallothionein II mRNA levels in Saos-2 cells as described by Harris [Endocrinology 142: 645-652 (2001)]. Results from this test procedure can be combined with results from the test procedure described below (ERE reporter test procedure) to generate a selectivity profile for compounds of this invention (see also WO 00/37681).

T1 sequence (Q92731 214-530): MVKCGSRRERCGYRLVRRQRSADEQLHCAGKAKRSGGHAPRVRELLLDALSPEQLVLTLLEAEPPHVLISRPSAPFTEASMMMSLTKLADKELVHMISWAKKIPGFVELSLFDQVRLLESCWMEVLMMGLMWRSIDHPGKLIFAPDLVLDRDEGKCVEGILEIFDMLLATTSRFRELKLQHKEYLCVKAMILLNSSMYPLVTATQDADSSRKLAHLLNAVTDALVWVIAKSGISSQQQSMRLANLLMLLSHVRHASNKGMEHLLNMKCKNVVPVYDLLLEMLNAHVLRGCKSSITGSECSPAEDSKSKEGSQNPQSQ

For orientation: IC50 means the midpoint of a concentration-inhibition curve. Take `Cc1c(-c2ccc(O)cc2)sc(C=NO)c1-c1cccc(O)c1` (mixture of isomers) [Example 16, 3-(3-Hydroxyphenyl)-5-(4-hydroxyphenyl)-4-methylthiophene-2-carbaldehyde oxime]: the results for the IC50 in data set [1] and in data set [2] were 91 nM and 275 nM, respectively.
For `Cc1c(-c2ccc(O)cc2)sc(C=NO)c1-c1ccc(O)cc1` (mixture of isomers) [Example 18, 3,5-Bis(4-hydroxyphenyl)-4-methylthiophene-2-carbaldehyde oxime], in that order: 42 nM and 86 nM.
Broadly, the melting point is the temperature, or range, at which the solid turns liquid. Compound `Cc1c(-c2cccc(O)c2)sc(C=NO)c1-c1ccc(O)cc1` (mixture of isomers) [Example 21, 3-(4-Hydroxyphenyl)-5-(3-hydroxyphenyl)-4-methylthiophene-2-carbaldehyde oxime] came in with a melting point of 240 to 241 °C. The IC50 in data set [1] is 123 nM. Further, in data set [2], the IC50 turned out to be 196 nM.
The like results for `Cc1c(-c2ccc(O)cc2)sc(C=O)c1-c1cccc(O)c1` [Example 1, 3-(3-Hydroxyphenyl)-5-(4-hydroxyphenyl)-4-methylthiophene-2-carbaldehyde] were, in that order, 103 to 104 °C, 54 nM and 212 nM.
Take `Cc1cc(O)ccc1-c1c(C=O)sc(-c2ccc(O)cc2)c1C` [Example 3, 3-(4-Hydroxy-2-methylphenyl)-5-(4-hydroxyphenyl)-4-methyl-2-thiophenecarbaldehyde]: the melting point fell in the range of 244 to 247 °C. Moreover, the 50% inhibitory concentration (IC50) in data set [1] came to 5.5 nM. The IC50 in data set [2] came to 29 nM.
Regarding `Cc1ccc(O)cc1-c1c(C=O)sc(-c2ccc(O)cc2)c1C` [Example 4, 3-(5-Hydroxy-2-methylphenyl)-5-(4-hydroxyphenyl)-4-methyl-2-thiophenecarbaldehyde], the IC50 in data set [1] was 174 nM; in data set [2], 464 nM.
The like results for `Cc1c(-c2ccc(O)cc2)sc(C=O)c1-c1ccc(O)c(F)c1` [Example 5, 3-(3-Fluoro-4-hydroxyphenyl)-5-(4-hydroxyphenyl)-4-methyl-2-thiophenecarbaldehyde] were, in that order, 1.8 nM and 35.5 nM.
As for `Cc1c(-c2ccc(O)cc2)sc(C=O)c1-c1ccc(O)c(C=O)c1` [Example 6, 3-(3-Formyl-4-hydroxyphenyl)-5-(4-hydroxyphenyl)-4-methyl-2-thiophenecarbaldehyde], the melting point fell in the range of 228 to 230 °C. Also, the IC50 in data set [1] worked out at 71 nM. In data set [2], the IC50 worked out at 515 nM.
As to `Cc1c(-c2ccc(O)cc2)sc(C=O)c1-c1ccc(O)c(Cl)c1` [Example 7, 3-(3-Chloro-4-hydroxyphenyl)-5-(4-hydroxyphenyl)-4-methylthiophene-2-carbaldehyde], the IC50 in data set [1] turned out to be 1.7 nM; in data set [2] it was 31 nM.
`Cc1c(-c2ccc(O)c(F)c2)sc(C=O)c1-c1ccc(O)cc1` [Example 8, 5-(3-Fluoro-4-hydroxyphenyl)-3-(4-hydroxyphenyl)-4-methyl-2-thiophenecarbaldehyde]: the melting point is 227 to 229 °C. For the same compound, the IC50 in data set [1] was 5.3 nM. Moreover, in data set [2], the half-maximal inhibitory concentration (IC50) was found to be 93 nM.
`Cc1cc(O)ccc1-c1c(C=O)sc(-c2ccc(O)c(F)c2)c1C` [Example 9, 5-(3-Fluoro-4-hydroxyphenyl)-3-(4-hydroxy-2-methylphenyl)-4-methylthiophene-2-carbaldehyde]: the IC50 in data set [1] came out at 12 nM; in data set [2], 85 nM.
`Cc1c(-c2ccc(O)c(F)c2)sc(C=O)c1-c1ccc(O)c(Cl)c1` [Example 10, 3-(3-Chloro-4-hydroxyphenyl)-5-(3-fluoro-4-hydroxyphenyl)-4-methylthiophene-2-carbaldehyde]: the melting point is 252 to 254 °C. Besides, in data set [1], the IC50 was determined as 4 nM. In addition, the IC50 in data set [2] stood at 88 nM.
Take `Cc1cc(O)ccc1-c1sc(C=O)c(-c2ccc(O)cc2)c1C` [Example 11, 5-(4-Hydroxy-2-methylphenyl)-3-(4-hydroxyphenyl)-4-methyl-2-thiophenecarbaldehyde]: the IC50 came to 7.8 nM in data set [1] and 68 nM in data set [2].
For `Cc1cc(O)ccc1-c1sc(C=O)c(-c2ccc(O)c(F)c2)c1C` [Example 12, 3-(3-Fluoro-4-hydroxyphenyl)-5-(4-hydroxy-2-methylphenyl)-4-methylthiophene-2-carbaldehyde], in that order: 13 nM and 89 nM.
Turning to `Cc1c(-c2ccc(O)c(Cl)c2)sc(C=O)c1-c1ccc(O)cc1` [Example 13, 5-(3-Chloro-4-hydroxyphenyl)-3-(4-hydroxyphenyl)-4-methylthiophene-2-carbaldehyde], the 50% inhibitory concentration (IC50) in data set [1] came to 27 nM; in data set [2] it was 293 nM.
`Cc1c(-c2ccc(O)c(Cl)c2)sc(C=O)c1-c1ccc(O)c(F)c1` [Example 14, 5-(3-Chloro-4-hydroxyphenyl)-3-(3-fluoro-4-hydroxyphenyl)-4-methylthiophene-2-carbaldehyde] came in with a melting point of 227 to 229 °C. Further, the IC50 in data set [1] came to 16 nM. The IC50 in data set [2] was determined as 157 nM.
`Cc1c(-c2ccc(O)cc2)sc(C=O)c1-c1ccc(O)cc1` [Example 15, 3,5-Bis(4-hydroxyphenyl)-4-methylthiophene-2-carbaldehyde] came in with a melting point of 223 to 225 °C. In addition, in data set [1], the IC50 stood at 2.1 nM. The IC50 in data set [2] was determined as 31 nM. Further, in data set [3], the “Fold upregulation of metallothionein-II mRNA” value stood at 6.0.
In the case of `Cc1c(-c2ccc(O)cc2)sc(C#N)c1-c1cccc(O)c1` [Example 17, 3-(3-Hydroxyphenyl)-5-(4-hydroxyphenyl)-4-methylthiophene-2-carbonitrile], the melting point was 220 to 222 °C. In data set [1], the IC50 came out at 83 nM. Moreover, the IC50 in data set [2] turned out to be 305 nM.
`Cc1c(-c2ccc(O)cc2)sc(C#N)c1-c1ccc(O)cc1` [Example 19, 3,5-Bis(4-hydroxyphenyl)-4-methylthiophene-2-carbonitrile]: the IC50 in data set [1] worked out at 3.6 nM; in data set [2] it was 40 nM.
The like results for `CON=Cc1sc(-c2ccc(O)cc2)c(C)c1-c1ccc(O)cc1` [Example 20, 3,5-Bis(4-hydroxyphenyl)-4-methylthiophene-2-carbaldehyde O-methyloxime] were, in that order, 28 nM and 152 nM.
Consider `Cc1c(-c2cccc(O)c2)sc(C#N)c1-c1ccc(O)cc1` [Example 22, 3-(4-Hydroxyphenyl)-5-(3-hydroxyphenyl)-4-methylthiophene-2-carbonitrile], for which the results for the IC50 in data set [1] and in data set [2] were 73 nM and 299 nM, respectively.
The compound `CON=Cc1sc(-c2ccc(O)cc2C)c(C)c1-c1ccc(O)c(F)c1` [Example 23, 3-(3-Fluoro-4-hydroxyphenyl)-5-(4-hydroxy-2-methylphenyl)-4-methylthiophene-2-carbaldehyde O-methyloxime] showed a melting point of 172 to 177 °C. Moreover, the IC50 in data set [1] is 57 nM. The IC50 in data set [2] was found to be 73 nM.
